Molecular target: T1, Rba. sphaeroides LH2 complex (light-harvesting 2 antenna, LH2 αβ) (Cereibacter sphaeroides, UniProt Q3J144+Q3J145)
T1 construct: gene pucA; native untagged complex purified from Rba. sphaeroides B7 membranes in LDAO; nonamer of αβ heterodimers; alpha N-terminal carboxymethionine; beta C-terminus Gly51
Assay: cryo-EM structure ([…] Å)
Type: binding
Details: one carotenoid per αβ heterodimer (9 per nonamer); native bound pigment; pH 7.8, LDAO

T1 sequence (Q3J145 whole entry): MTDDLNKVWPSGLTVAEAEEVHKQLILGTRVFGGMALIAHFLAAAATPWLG
T1 sequence (Q3J144 1-50): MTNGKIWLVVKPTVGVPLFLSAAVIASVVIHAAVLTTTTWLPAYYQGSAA

COC(C)(C)C/C=C/C(C)=C/C=C/C(C)=C/C=C/C(C)=C/C=C/C=C(C)/C=C/C=C(\C)CC/C=C(\C)CCC=C(C)C [spheroidene]
cryo-EM structure (2.1 Å): the carotenoid spheroidene adopts an all-trans conformation as it winds through the LH2 complex

From PMC8775250, “Cryo-EM Structure of the Rhodobacter sphaeroides Light-Harvesting 2 Complex at 2.1 Å” (Biochemistry, 2021)
